Assay results published in the NIST ThermoML archive (doi:10.1016/j.jct.2008.01.023).

Tests used:
[1] = 298.15 K; 101.33 kPa; Liquid
[2] = refractive index (Na D-line) (dimensionless); conditions: 298.15 K; 101.33 kPa; Liquid; Standard Abbe refractometry
[3] = xn = mol fraction of the nth substance listed; conditions: 298.15 K, 101 kPa, Liquid
[4] = refractive index (Na D-line) (dimensionless); xn = mol fraction of the nth substance listed; conditions: 298.15 K, 101 kPa, Liquid, Standard Abbe refractometry

CCCCn1cc[n+](C)c1.F[B-](F)(F)F [1-butyl-3-methylimidazolium tetrafluoroborate]
Conditions | mass density [kg/m3] | refractive index
[1] | 1201.41 | –
[2] | – | 1.4219

CCCCn1cc[n+](C)c1.F[B-](F)(F)F [1-butyl-3-methylimidazolium tetrafluoroborate] + CCO
Conditions | mass density, [3] [kg/m3] | refractive index, [4]
x1 = 0.0517 | 850.45 | 1.3703
x1 = 0.0918 | 891.63 | 1.3767
x1 = 0.1995 | 976.13 | 1.3898
x1 = 0.2495 | 1007.41 | 1.3943
x1 = 0.2518 | 1042.9 | 1.3946
x1 = 0.3228 | 1081.97 | 1.3998
x1 = 0.4219 | 1117.11 | 1.4058
x1 = 0.5356 | 1138.94 | 1.4105
x1 = 0.6244 | 1156.56 | 1.4137
x1 = 0.709 | 1177.74 | 1.4161
x1 = 0.8295 | 1192.74 | 1.4188

CCCCn1cc[n+](C)c1.F[B-](F)(F)F [1-butyl-3-methylimidazolium tetrafluoroborate] + OCCO
Conditions | mass density, [3] [kg/m3] | refractive index, [4]
x1 = 0.0517 | 1123.11 | 1.4287
x1 = 0.138 | 1138.78 | 1.4261
x1 = 0.1928 | 1146.51 | 1.425
x1 = 0.2567 | 1154.22 | 1.424
x1 = 0.3 | 1158.72 | 1.4235
x1 = 0.3324 | 1161.86 | 1.4231
x1 = 0.402 | 1167.89 | 1.4226
x1 = 0.4162 | 1168.98 | 1.4225
x1 = 0.4997 | 1175.1 | 1.4219
x1 = 0.5803 | 1180.22 | 1.4216
x1 = 0.632 | 1183.29 | 1.4215
x1 = 0.696 | 1186.82 | 1.4215
x1 = 0.8045 | 1192.48 | 1.4215
x1 = 0.9083 | 1197.33 | 1.4217

CCOCCOCCO [3,6-dioxa-1-octanol]
Conditions | mass density [kg/m3] | refractive index
[1] | 983.68 | –
[2] | – | 1.4253

CCOCCOCCO [3,6-dioxa-1-octanol] + CCCCn1cc[n+](C)c1.COS(=O)(=O)[O-]
Conditions | mass density, [3] [kg/m3] | refractive index, [4]
x2 = 0.0517 | 1003.36 | 1.4307
x2 = 0.0891 | 1016.08 | 1.4339
x2 = 0.1483 | 1035.02 | 1.4388
x2 = 0.2233 | 1057.1 | 1.4443
x2 = 0.2901 | 1074.98 | 1.4488
x2 = 0.3194 | 1082.5 | 1.4507
x2 = 0.3902 | 1099.82 | 1.4548
x2 = 0.4732 | 1118.6 | 1.4593
x2 = 0.5364 | 1131.83 | 1.4626
x2 = 0.6235 | 1148.55 | 1.4663
x2 = 0.696 | 1161.73 | 1.4697
x2 = 0.8065 | 1179.9 | 1.4735
x2 = 0.8947 | 1193.18 | 1.4763

CCOCCOCCO [3,6-dioxa-1-octanol] + CCCCn1cc[n+](C)c1.F[B-](F)(F)F
Conditions | mass density, [3] [kg/m3] | refractive index, [4]
x2 = 0.0544 | 1003.36 | 1.4268
x2 = 0.1016 | 1018.2 | 1.4274
x2 = 0.1492 | 1032.87 | 1.4277
x2 = 0.1941 | 1045.1 | 1.4278
x2 = 0.2686 | 1065.22 | 1.4278
x2 = 0.3215 | 1078.37 | 1.4277
x2 = 0.3932 | 1094.93 | 1.4273
x2 = 0.5108 | 1119.82 | 1.4265
x2 = 0.6016 | 1137.49 | 1.4257
x2 = 0.6657 | 1149.16 | 1.425
x2 = 0.6998 | 1155.07 | 1.4247
x2 = 0.8304 | 1176.5 | 1.4235
x2 = 0.9551 | 1195.04 | 1.4223

CCO [ethanol]
Conditions | mass density [kg/m3] | refractive index
[1] | 785.18 | –
[2] | – | 1.3593

C[N+](=O)[O-] [nitromethane]
Conditions | mass density [kg/m3] | refractive index
[1] | 1131.17 | –
[2] | – | 1.3796

C[N+](=O)[O-] [nitromethane] + CCCCn1cc[n+](C)c1.F[B-](F)(F)F
Conditions | mass density, [3] [kg/m3] | refractive index, [4]
x2 = 0.0512 | 1148.18 | 1.3889
x2 = 0.0991 | 1158.64 | 1.3952
x2 = 0.1392 | 1165.19 | 1.399
x2 = 0.2026 | 1173.12 | 1.4038
x2 = 0.2986 | 1181.43 | 1.4089
x2 = 0.3565 | 1185.14 | 1.4112
x2 = 0.3972 | 1187.27 | 1.4125
x2 = 0.4553 | 1189.89 | 1.4142
x2 = 0.5231 | 1192.3 | 1.4158
x2 = 0.5949 | 1194.48 | 1.4172
x2 = 0.6863 | 1196.69 | 1.4188
x2 = 0.8073 | 1198.86 | 1.4202
x2 = 0.8634 | 1199.69 | 1.4207
